Where two headings read alike, the source gives them in different places.

A word on the IC50: it is the point on the concentration scale where inhibition reaches its midpoint. A high value points to weaker potency. Broadly, the AUC is concentration integrated over time.

The nature of series [1]: Metabolic stability test in hepatocytes, rat. Type of series: in vitro ADME. The settings on record: hepatocytes (suspension), Table 5: metabolic stability in hepatocytes, up to 90 min, read-out: Metabolic half-life in rat liver microsome (T½, min). How it is done: This experimental example was used to test the metabolic stability of the compounds in hepatocytes.
A suspension of hepatocytes was prepared at 0.5×10^6/mL with a pre-heated medium, then 198 μL of the pre-heated cell suspension was added to a 96-well plate. To each well of the 96-well plate, 2 μL of the test compound was added so that the final concentration was 1 μM, and 2 replicate wells were set. For the T=0 min sample, the compound was mixed well with the cells for 1 min, then […] was immediately added to 125 μL of a stop solution (an acetonitrile solution containing 200 ng/mL tolbutamide and 200 ng/mL labetalol) under an ice bath and mixed well. At the same time, all the plates were placed in an incubator at 37° C. with 5% CO2, with the shaker set at 600 rpm. The sample was mixed well at 15, 30, 60, and 90 min of incubation, respectively, and 25 μL of the sample was added to 125 μL of a stop solution (an acetonitrile solution containing 200 ng/mL tolbutamide and 200 ng/mL labetalol) under an ice bath, mixed well, and shaken at 500 rpm for 10 min. Subsequently, the plate was centrifuged for 20 min at 3220×g at 4° C. After the centrifugation was completed, 80 μL of the supernatant from each well was transferred to another 96-well plate containing 240 μL of ultrapure water. Subsequently, analysis was carried out using LC-MS/MS, and intrinsic clearance (CLint) and half-life (T½) were calculated.
(Microsomes from liver hold many membrane-bound enzymes, among them those of drug oxidation.)

The target in the next series is T1, CYP3A4 (Homo sapiens, UniProt P08684).
T1 construct: from tissue; host or cells: liver microsome
The experiment in a line: Cytochrome oxidase P450 inhibition test, CYP3A4. The settings on record: liver microsome incubation. The class given is in vitro ADME. How it is done: 100 mM K-Buffer: 9.5 mL of stock solution A was mixed with 40.5 mL of stock solution B, the total volume was adjusted to […] with ultrapure water, and the buffer was titrated to pH 7.4 with KOH or H3PO4. • Starting material A (1 M potassium dihydrogen phosphate): 136.5 g of potassium dihydrogen phosphate in 1 L of water. • Stock B […] in 1 L of water. The test substance powder was prepared into a stock solution with a certain concentration using DMSO or other organic solvents, which was then further diluted using a proper organic solvent. The extracorporeal incubation system for CYP450 enzyme metabolism phenotype study was biochemical reaction of a prepared liver microsome, a redox coenzyme, and an enzyme-specific selective inhibitor in simulated physiological temperature and environment. The concentration of the parent drug or a metabolite thereof in the incubation solution was determined by LC-MS/MS.

A short description of series [2]: Stability test in liver microsomes, mouse. The settings on record: CD-1; mouse liver microsomes 0.5 mg/mL, 1.0 μM substrate, up to 60 min; read-out: Metabolic half-life in mouse liver microsome (T½, min). Type of series: in vitro ADME, CD-1 mice.
Series [3] can be described thus: Pharmacokinetic test in rats (IV and PO). The class given is in vivo. The settings on record: rat, plasma, SD rats; for half-life: read-out: T½ (converted).
For another series, the target named is T2, PXR (Homo sapiens, UniProt O75469).
T2 construct: host or cells: DPX2 cells
T2 sequence (O75469 1-434): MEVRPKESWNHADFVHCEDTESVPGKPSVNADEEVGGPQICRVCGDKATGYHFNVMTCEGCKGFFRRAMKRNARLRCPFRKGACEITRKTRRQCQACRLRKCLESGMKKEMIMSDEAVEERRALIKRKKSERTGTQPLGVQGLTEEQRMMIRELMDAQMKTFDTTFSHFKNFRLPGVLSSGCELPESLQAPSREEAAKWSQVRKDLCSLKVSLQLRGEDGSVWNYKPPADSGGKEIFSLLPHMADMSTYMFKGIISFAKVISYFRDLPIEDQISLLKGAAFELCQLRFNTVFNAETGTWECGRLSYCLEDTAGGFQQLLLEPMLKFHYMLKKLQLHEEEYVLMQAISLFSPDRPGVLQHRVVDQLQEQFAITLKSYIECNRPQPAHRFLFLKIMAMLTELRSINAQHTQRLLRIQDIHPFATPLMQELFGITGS
As to the kind of experiment: PXR activation test in stably transfected DPX2 cells. Type of series: cell-based. The following applies: for PXR activation fold (10 μM) / PXR activation fold (30 μM): DPX2 cells, 48 h; for activation activity on PXR at 30 μM (in words): summary of Table 10. How it is done:
In this example, the compound was tested for PXR activation.
100 μL of stably transfected DPX2 cells were seeded per well of a 96-well cell culture plate (4.5×10^5 cells/mL in Puracyp medium), followed by placing the 96-well plate in a 37° C. incubator. After 24 h, the 96-well plate was taken out from the incubator, the medium was replaced with 100 μL of the test compound (at a final concentration of 10 μM and 30 μM), positive control compound rifampicin (at a final concentration of 10 μM), and the DMSO treatment group (at a final concentration of 0.1%), and 3 replicate wells were set. The test plate was placed back into the incubator. After 24 h, the medium was replaced with the freshly prepared test compound and rifampicin solution, and the test plate was again placed back into the incubator. After the compound was treated for 48 h, the test plate was taken out from the incubator. The medium in the wells was discarded, the plate was washed twice with PBS, 50 μL of medium containing 1×CellTiter-Fluor™ Cell Viability Assay reagent was added, and the mixture was incubated at 37° C. for 30 min. The test plate was taken out and equilibrated to room temperature, and the fluorescence signal under the conditions of 400 nm excitation light/505 nm emission light was detected by a microplate reader.
Subsequently, 50 μL of medium containing ONE-Glo Assay reagent was added to each well, and the plate was shaken, mixed well, and incubated at room temperature for 5 min. Chemiluminescence was detected by a microplate reader. The data was analyzed to evaluate the PXR activation of the test compound.

The subject of series [4] is Human colorectal adenocarcinoma cells HCT116-MTAP-KO. As to the kind of experiment: Mouse xenograft tumor pharmacodynamic model, HCT116-MTAP-KO. The class given is in vivo. The method, then:
In this example, the in vivo efficacy of the compound in a mouse xenograft tumor model after intragastric (PO) administration was tested.
Human colorectal adenocarcinoma cells HCT116-MTAP-KO were cultured in monolayer in vitro under the condition of McCoy's 5A medium containing 10% fetal bovine serum and 1% penicillin and streptomycin, and the culture was carried out at 37° C. with 5% CO2. The cells were digested with trypsin three times a week for passaging. When the saturation degree of the cells was 80-90%, the cells were collected, counted and inoculated. 0.1 mL (5×10^6 cells) of HCT116-MTAP-KO cells were subcutaneously inoculated on the right back of each mouse. On day 16 after inoculation of the cells, the mean tumor volume reached 154 mm^3. The mice were randomly grouped for administration and intragastrically dosed once daily. Changes in body weight and tumor volume were recorded. After a certain number of days of administration, the experiment was ended. Tumor volume changes and mouse body weight changes were counted and analyzed. AG270 (CAS: 2201056-66-6) was the positive control compound.

T1 sequence (P08684 whole entry): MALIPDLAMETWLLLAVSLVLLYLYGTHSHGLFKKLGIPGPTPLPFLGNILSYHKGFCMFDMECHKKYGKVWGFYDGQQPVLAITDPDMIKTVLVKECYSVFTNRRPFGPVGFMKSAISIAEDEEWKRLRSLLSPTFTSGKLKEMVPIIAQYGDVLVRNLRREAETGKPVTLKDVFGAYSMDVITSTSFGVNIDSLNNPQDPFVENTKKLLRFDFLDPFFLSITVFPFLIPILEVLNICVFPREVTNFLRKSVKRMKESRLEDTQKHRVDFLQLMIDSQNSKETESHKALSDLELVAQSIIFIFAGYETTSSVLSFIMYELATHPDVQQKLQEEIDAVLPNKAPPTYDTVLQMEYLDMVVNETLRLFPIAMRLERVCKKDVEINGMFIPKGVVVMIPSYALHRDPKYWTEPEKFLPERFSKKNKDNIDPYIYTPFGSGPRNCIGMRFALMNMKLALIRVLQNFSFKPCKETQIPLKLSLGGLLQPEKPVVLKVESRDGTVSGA

For the compound `Cc1ncccc1-n1c(=O)c2nn(C)cc2c2ccc(C(F)(F)F)nc21` (single isomer, unassigned) [Compound B180], the half-life at 1 μM in series [1] was 51.1 min. The compound further had an IC50 at CYP3A4 of over 10 µM.
As for `Cn1cc2c(n1)c(=O)n(-c1cccnc1)c1cc(Cl)ccc21` [Compound B12], the half-life at 1 μM in series [2] is over 145 min. The IC50 against CYP3A4 is over 10 µM. For the same compound, in series [3] (IV 1 mg/kg), the AUC is 18.9 µM·h, the clearance was 2.67 mL/min/kg and the half-life is 3.4 h. Further, the bioavailability in series [3] (IV 1 mg/kg, PO 5 mg/kg) was 217%. Moreover, in series [3] (PO 5 mg/kg), the AUC is 223 µM·h and the half-life was 3.7 h.
Take `Cn1cc2c(n1)c(=O)n(-c1cccc3[nH]ncc13)c1cc(Cl)ccc21` [Compound B60]: at PXR, the “PXR activation fold (10 μM)” value stood at 7.06 fold and the “PXR activation fold (30 μM)” value is 21.71 fold. Moreover, the half-life at 1 μM in series [2] was over 145 min. This compound also displayed an IC50 at CYP3A4 of over 10 µM.
In the case of `Cn1cc2c(n1)c(=O)n(-c1cccc(O)c1)c1nc(C(F)(F)F)ccc21` [Compound B148], the half-life at 1 μM in series [1] was determined as 50.9 min; in series [2] it was 120 min.
For `O=c1c2n[nH]cc2c2ccc(C(F)(F)F)nc2n1-c1cccnc1` [Compound B178], on PXR, the “PXR activation fold (10 μM)” value came out at 7.47 fold and the “PXR activation fold (30 μM)” value came out at 34.49 fold.
With `Cn1cc2c(n1)c(=O)n(-c1cccc3[nH]ncc13)c1nc(C(F)(F)F)ccc21` [Compound B181], on PXR, the “activation activity on PXR at 30 μM (in words)” value was “very weak”, the “PXR activation fold (10 μM)” value amounted to 3.63 fold and the “PXR activation fold (30 μM)” value is 3.77 fold. Moreover, the half-life at 1 μM in series [2] was over 145 min. Also, the IC50 against CYP3A4 is over 30 µM. Further, in series [3] (IV 1 mg/kg), the AUC is 120 µM·h, the clearance was 0.333 mL/min/kg and the half-life is 6.7 h. In series [3] (IV 1 mg/kg, PO 5 mg/kg), the bioavailability was 90%. In series [3] (PO 5 mg/kg), the AUC worked out at 541 µM·h and the half-life was 9.5 h.
Turning to `Cn1cc2c(n1)c(=O)n(-c1ccccc1Cl)c1nc(C(F)(F)F)ccc21` [Compound B182], in series [2], the half-life at 1 μM is 136 min.
Regarding `Cn1cc2c(n1)c(=O)n(-c1cccc3[nH]ncc13)c1cc(Cl)c(F)cc21` [Compound B257], in series [4] (PO 1 mg/kg once a day, 15 days of administration), the “Tumor growth inhibition percentage (TGI)” value is “once a day TGI = 77.29%”. Moreover, in series [4] (PO 1 mg/kg once a day, 28 days of administration), the “Tumor growth inhibition percentage (TGI)” value is given as “once a day TGI = 51.34%”. Moreover, the “Tumor growth inhibition percentage (TGI)” value in series [4] (PO 3 mg/kg once a day, 28 days of administration) was “once a day TGI = 87.78%”. In addition, at PXR, the “activation activity on PXR at 30 μM (in words)” value is “very weak”, the “PXR activation fold (10 μM)” value is on record as 3.37 fold and the “PXR activation fold (30 μM)” value is 7.87 fold. In addition, in series [3] (IV 1 mg/kg), the AUC turned out to be 177 µM·h, the clearance is 0.283 mL/min/kg and the half-life was 8.8 h. Moreover, the bioavailability in series [3] (IV 1 mg/kg, PO 10 mg/kg) amounted to 243%. Besides, the half-life in series [3] (PO 10 mg/kg) was 72.8 h.
As to `Cn1cc2c(n1)c(=O)n(-c1cccc3[nH]ncc13)c1cc(Cl)c(C#N)cc21` [Compound B258], the “Tumor growth inhibition percentage (TGI)” value in series [4] (PO 3 mg/kg once a day, 15 days of administration) was “once a day TGI = 52.48%”; in series [4] (PO 10 mg/kg once a day, 15 days of administration) it was “once a day TGI = 72.58%”; in series [4] (PO 30 mg/kg once a day, 15 days of administration), “once a day TGI = 81.2%”; in series [4] (PO 100 mg/kg once a day, 15 days of administration), “once a day TGI = 83.75%”.
With `Cn1cc2c(n1)c(=O)n(-c1cccnc1C1CC1)c1cc(Cl)c(F)cc21` [Compound B340], the half-life at 1 μM in series [1] amounted to 150 min. Also, the “Tumor growth inhibition percentage (TGI)” value is “once a day TGI = 48.04%” in series [4] (PO 3 mg/kg once a day, 22 days of administration); “once a day TGI = 61.99%” in series [4] (PO 10 mg/kg once a day, 22 days of administration); “once a day TGI = 72.55%” in series [4] (PO 30 mg/kg once a day, 22 days of administration). The AUC was 10.2 µM·h in series [3] (IV 1 mg/kg) and 68.9 µM·h in series [3] (PO 5 mg/kg). The compound further gave a clearance in series [3] (IV 1 mg/kg) of 4.5 mL/min/kg. The results for the half-life in series [3] (IV 1 mg/kg) and in series [3] (PO 5 mg/kg) were 6.7 h and 14.7 h, respectively.

Values taken from patent publication US20240391923A1, “METHIONINE ADENOSYLTRANSFERASE 2A INHIBITOR FOR TREATING MTAP DELETION-TYPE CANCER” (SUZHOU GENHOUSE BIO CO., LTD., priority 2022, published 2024).
